This passage reports LD50 results from the CATMoS acute toxicity set (Mansouri et al. 2021).

One may read the LD50 as the dose expected to kill half of the subjects tested. Read a high LD50 as a less toxic substance.

The data set can be described thus: rat acute oral toxicity. To be noted: in vivo. An excerpt: […]The data set underlying the modeling effort for this project was initially compiled by NICEATM and U.S. EPA’s CCTE. Briefly, LD50 data were collected from rat acute oral systemic toxicity tests, including limit tests, ranges/confidence intervals, and discrete LD50 values. The full data set included 21,200 LD50 entries for 15,688 substances. […] Data were reviewed to ensure that LD50 values with obvious errors in the extracted data such as unit conversion errors (e.g., comma and decimal separator misplacements) were either fixed or removed. After this review, 16,209 LD50 values remained. Many of the chemicals represented had multiple LD50 entries, requiring that a single representative value per Chemical Abstracts Service Registry Number (CASRN) identifier be defined to facilitate modeling efforts. Based on ATWG feedback and to define the representative LD50 as a protective value while accounting for the distribution across multiple LD50s, the median of the lowest quartile was computed using only discrete LD50 values (omitting limit test data and range and confidence interval data). A detailed summary of the data compilation is available online on the NICEATM webpage dedicated to the collaborative modeling project (NTP 2020).
[…][…] For categorical designations, limit test and range/confidence interval LD50 data were integrated wherever possible. As such, the number of chemicals with end point values/calls varies across the modeling end points (Table 3) based on whether chemicals had representative LD50 values and/or other data. If a chemical had both, the representative value was used to determine categorical calls rather than limit test data. Some data were useable only for certain end points and categories depending on the thresholds. For example, ranges that spanned multiple hazard categories were considered only for the binary (very toxic/nontoxic) end points and omitted from rendering a determination for hazard category assignment.
[…]The final data set comprising 11,992 chemicals was split into training and evaluation sets […], respectively. This process was performed semirandomly by ordering chemicals based on the five end points (categorical and continuous LD50 values) and partitioning every fourth record into the evaluation set accordingly. This approach was taken to ensure an equivalent distribution of the LD50 values and the different hazard categories between the training and the evaluation sets without supervised sampling of the chemicals based on structures (Figure 1A). The sources of the chemical structures were also kept equivalent between the two sets, with chemical structures obtained from DSSTox, being the highest quality, representing over 75% of each set (Figure 1B).

`Oc1ccccc1O` showed an LD50 of 260 mg/kg.

`CCC1(c2ccccc2)C(=O)NC(=O)NC1=O` displayed an LD50 of 162 mg/kg.

On to `CCC[N+](CCC)(CCC)CCC`, for which the LD50 came out at 3300 mg/kg.

`Cc1ccc(Cl)cc1` yielded an LD50 of 2100 mg/kg.

For the compound `C1=CC2CCC1C2`, the LD50 came to 9580 mg/kg.

In turn, `O=C1CCCC(=O)O1` came in with an LD50 of 540 mg/kg.

`CN(C)CC/C=C1\c2ccccc2Sc2ccc(Cl)cc21` displayed an LD50 of 200 mg/kg.

Turning to `N#Cc1ccccc1O`, the LD50 stood at 300 mg/kg.

`CCC[N+](C)(C)CC[N+](C)(C)CCO` showed an LD50 of 1850 mg/kg.

`CCCCN(CCCC)SN(C)C(=O)Oc1cccc2c1OC(C)(C)C2` gave an LD50 of 51 mg/kg.

In turn, `COP(=S)(OC)SCN1C(=O)c2ccccc2C1=O` showed an LD50 of 26 mg/kg.

`OC1CCCCC1`: the LD50 was 1400 mg/kg.

In turn, `CCC(C)(C#N)/N=N/C(C)(C#N)CC` (configuration not stated) gave an LD50 of 333 mg/kg.

The compound `C=CC(=O)OCCOC` returned an LD50 of 404 mg/kg.

`CC(C)N(C(=O)CO)c1ccc(F)cc1`: the median lethal dose (LD50) worked out at 474 mg/kg.

`CCCCOC(=O)c1ccccc1` displayed an LD50 of 735 mg/kg.

Regarding `CNCCO`, the LD50 was 1390 mg/kg.

With `CCCCOCN(C(=O)CCl)c1c(CC)cccc1CC`, the LD50 is 1740 mg/kg.

As to `O=C(O)CF`, the LD50 came out at 0.1 mg/kg.

On to `CCNc1nc(NC(C)C)nc(SC)n1`, for which the LD50 came to 1060 mg/kg.

Take `CCCCC(C=O)CC` (configuration not stated): the LD50 is 2600 mg/kg.

Take `O=C1C(Cl)=C(Cl)C(=O)C(Cl)=C1Cl`: the LD50 worked out at 4000 mg/kg.

The compound `CC(C)(C)OOC1(OOC(C)(C)C)CCCCC1` returned an LD50 of 13300 mg/kg.

On to `CC1=CCC(O)(C(C)C)CC1` (configuration not stated), for which the LD50 stood at 1300 mg/kg.

Take `O=C(NCc1cccnc1)Nc1ccc([N+](=O)[O-])cc1`: the LD50 stood at 4.75 mg/kg.

Consider `CNC(=O)ON=C1C(Cl)C2CC(C#N)C1C2` (configuration not stated), for which the LD50 came out at 19 mg/kg.

Take `Nc1ccncc1`: the LD50 was determined as 14 mg/kg.

With `CC(C)[C@H](C(=O)OC(C#N)c1cccc(Oc2ccccc2)c1)c1ccc(OC(F)F)cc1` (some centres not stated), the median lethal dose (LD50) amounted to 67 mg/kg.

With `O=[N+]([O-])c1ccc(O)cc1`, the LD50 was 170 mg/kg.

For `CCCCCCCCCCCCCCCCCCN(C)C`, the LD50 is 2120 mg/kg.

Take `CS(=O)(=O)O`: the LD50 turned out to be 200 mg/kg.

With `CC(O)CNCC(C)O` (configuration not stated), the LD50 turned out to be 4760 mg/kg.

The compound `O=[N+]([O-])c1cccc(Cl)c1Cl` came in with an LD50 of 381 mg/kg.

Regarding `CC(O)COCC(C)O` (configuration not stated), the LD50 worked out at 14800 mg/kg.

`COP(=O)(OC)O/C(=C\Cl)c1cc(Cl)c(Cl)cc1Cl`: the LD50 came out at 480 mg/kg.

As for `C=CC(=O)Nc1ccccc1`, the LD50 was found to be 300 mg/kg.

Compound `ClCC1CO1` (configuration not stated) returned an LD50 of 65 mg/kg.

The compound `ClC1=C(Cl)C(Cl)(C2(Cl)C(Cl)=C(Cl)C(Cl)=C2Cl)C(Cl)=C1Cl` showed an LD50 of 1200 mg/kg.

`CCCCCCCC(=O)OCC(COC(=O)CCCCCCC)OC(=O)CCCCCCC` yielded an LD50 of 33300 mg/kg.

With `CCCS`, the LD50 is 1730 mg/kg.

`Clc1cccc(Cl)c1N=C1NCCN1` came in with an LD50 of 67.3 mg/kg.

For `ClC1=C(Cl)[C@]2(Cl)[C@H]3[C@H]([C@@H]4C=C[C@H]3C4)[C@@]1(Cl)C2(Cl)Cl` (racemic), the LD50 was found to be 39 mg/kg.

As for `c1ccc(-c2ccccn2)nc1`, the LD50 was 100 mg/kg.

In turn, `Nc1ccc(Sc2ccc(N)cc2)cc1` returned an LD50 of 900 mg/kg.

On to `ClC(Cl)=C(Cl)C(Cl)=C(Cl)Cl`, for which the LD50 is 82 mg/kg.

`Cc1ccc(C)c(OCCCC(C)(C)C(=O)O)c1`: the 50% lethal dose (LD50) came out at 479 mg/kg.

With `CC(O)CN(CCCN(C)C)CCCN(C)C` (configuration not stated), the LD50 is 1330 mg/kg.

For the compound `CCCCCC1CCC(=O)O1` (configuration not stated), the median lethal dose (LD50) amounted to 6600 mg/kg.

The compound `ClC(Cl)c1ccccc1` gave an LD50 of 3250 mg/kg.

On to `CCCCCCCCC=CCCCCCCCC1=NCCN1CCO`, for which the LD50 was 1000 mg/kg.

In the case of `O=P(OCC(Br)CBr)(OCC(Br)CBr)OCC(Br)CBr` (configuration not stated), the LD50 stood at 810 mg/kg.

`COC(=O)c1ccccc1O`: the LD50 is 887 mg/kg.

The compound `O=CCCCC=O` registered an LD50 of 134 mg/kg.

With `CCCCC(CC)COC(=O)CC(C(=O)OCC(CC)CCCC)S(=O)(=O)O` (configuration not stated), the LD50 is 1900 mg/kg.

`ClCc1ccccc1` registered an LD50 of 440 mg/kg.

Take `Cn1sccc1=O`: the LD50 came out at 105 mg/kg.

Compound `C=CCOC(=O)C(=C)C` came in with an LD50 of 70 mg/kg.

For the compound `Oc1cc(Cl)ccc1Cl`, the LD50 stood at 580 mg/kg.

In turn, `CC1(C)COCN1` gave an LD50 of 950 mg/kg.

`CN(C)c1ccc(N)cc1` came in with an LD50 of 50 mg/kg.

As to `CN(C)C(C)(C)CO`, the LD50 was 1660 mg/kg.

`N#Cc1ccc(Cl)c(Cl)c1` registered an LD50 of 200 mg/kg.
